Laboratory results as given in patent US20230346815A1, “LMP7-SELECTIVE INHIBITORS FOR THE TREATMENT OF BLOOD DISORDERS AND SOLID TUMORS” (Merck Patent GmbH, priority 2020, published 2023).
Entries after “also recorded” stand apart in the source; their conditions may differ.

Columns and labels:
[1] = test system: NCI-H929; test: Efficacy in the multiple myeloma xenograft model NCI-H929; format: in vivo, mouse; details: t(4;14)-positive NCI-H929 xenograft, compound 9 10 mg/kg per os once daily
Protocol: The human multiple myeloma cell line NCI-H929 was obtained from the American Type Culture Collection (ATCC). 100 μL of a suspension of 5 million cells in PBS mixed 1:1 with Matrigel was injected per mouse. Bortezomib, carfilzomib and compound 9 were formulated and applied as described in Example 1. Mean tumor volume and SEM are indicated.
NCI-H929 xenograft tumors were established as described in Example 2. Compound 9 and ixazomib were formulated and applied as described in Example 1.

[2] = test system: MM.1S; test: Efficacy in the multiple myeloma xenograft model MM.1S; format: in vivo, mouse; details: t(14;16)-positive MM.1S xenograft; compound 9 10 mg/kg per os once daily; vs bortezomib, ixazomib, carfilzomib 3 mg/kg i.v. twice per week; FIG. 4
Protocol: The human multiple myeloma cell line MM.1S was obtained from the ATCC. 100 μL of a suspension of 5 million cells in PBS was injected per mouse. Bortezomib, ixazomib and compound 9 were formulated and applied as described in Example 1. Carfilzomib was formulated as described in Example 1 and applied intravenously (i.v.) to mice at a dose of 3 mg/kg twice per week.

[3] = test system: OPM-2; test: Efficacy in the multiple myeloma xenograft model OPM-2; format: in vivo, mouse; details: t(4;14)-positive OPM-2 xenograft; compound 9 10 mg/kg per os once daily; vs bortezomib 0.5 mg/kg i.v., ixazomib 3 mg/kg per os, carfilzomib 2 mg/kg i.p., each twice per week; FIG. 1
Protocol: The human multiple myeloma cell line OPM-2 was obtained from the German Collection of Microorganisms and Cell Cultures GmbH (DSMZ). 100 μL of a suspension of 5 million cells in phosphate-buffered saline (PBS) mixed 1:1 with Matrigel (Becton Dickinson) was injected per mouse. Bortezomib was formulated in Mannitol (Merck KGaA) in 0.9% NaCl and applied intravenously (i.v.) to mice at a dose of 0.5 mg/kg twice per week. Ixazomib was formulated in 5% KLEPTOSE® in water and applied orally (per os) to mice at a dose of 3 mg/kg twice per week. Carfilzomib was formulated in 5% KLEPTOSE® (AppliChem) in 50 mM sodium citrate buffer and applied by intraperitoneal (i.p.) injection to mice at a dose of 2 mg/kg twice per week. Compound 9 was formulated in 0.5% METHOCEL™ Premium K4M (Colorcon) and 0.25% Tween® 20 in PBS at applied per os to mice once daily at a dose of 10 mg/kg. Mean tumor volume and standard error of the mean (SEM) are indicated.

[4] = molecular target: T1, LMP7 (Homo sapiens, UniProt P20618+P28062); test: LMP7 activity in MM.1S xenograft tumors in vivo, cleavage of (Ac-ANW)2R110; parameters: from tissue; host or cells: MM.1S xenograft tumor lysate (tumors grown in mice); species or system mouse; details: compound 9 applied once per os 10 mg/kg, vs control and bortezomib, carfilzomib, ixazomib single dose, FIG. 6
Protocol: MM.1S xenograft tumors were established as described in Example 4. Compound 9, bortezomib, carfilzomib and ixazomib were formulated as described in Example 1. Compound 9 was applied once per os to mice at a dose of 10 mg/kg. Bortezomib was applied once i.v. to mice at a dose of 0.5 mg/kg. Ixazomib was applied once per os to mice at a dose of 3 mg/kg. Carfilzomib was applied once i.v. at a dose of 3 mg/kg. MM1S tumors were collected immediately following mouse euthanasia and lysed as described previously (Buchstaller et al., 2019). For assessment of LMP7 activity, 10 μg of tumor lysate protein in a total volume of 50 μL was mixed in 96-well plates with 50 μl of a buffer containing 100 mM HEPES pH 7.6, 60 mM MgSO4, 1 mM EDTA, 40 μg/ml digitonin and the fluorogenic LMP7 substrate (Ac-ANW)2R110 (from Biomol) at a final concentration of 10 μM. Plates were then shaken briefly, incubated for 60 min at 37° C. and then centrifuged at 300×g. Fluorescence (excitation 485 nm, emission 535 nm) was measured using an EnVision 2104 plate reader (PerkinElmer).

[5] = test system: RPMI 8826; test: Efficacy in the multiple myeloma xenograft model RPMI 8826; format: in vivo, mouse; details: t(14;16)-positive RPMI 8826 xenograft; compound 9 10 mg/kg per os once daily; vs bortezomib, carfilzomib, ixazomib; FIG. 5
Protocol: The human multiple myeloma cell line RPMI 8826 was obtained from the ATCC. 100 μL of a suspension of 5 million cells in PBS mixed 1:1 with Matrigel was injected per mouse. Bortezomib, carfilzomib, ixazomib and compound 9 were formulated and applied as described in Example 1.

[6] = test system: Caspase-3/-7 activity; test: Caspase 3/7 activity in MM.1S xenograft tumors in vivo; parameters: species or system mouse; details: compound 9 applied once per os 10 mg/kg, vs vehicle control and bortezomib, carfilzomib, ixazomib single dose, FIG. 7
Protocol: MM.1S xenograft tumors samples from the same experiment described in Example 6 were used for assessment of Caspase-3/-7 activity as an indication of tumor cell apoptosis. 50 μg of tumor lysate protein in a total volume of 50 μL was mixed with the Caspase-Glo®3/7 Reagent (Promega) in 96-well plates according to the manufacturer's instruction. Luminescence was measured using an Envision 2104 plate reader (PerkinElmer).

[7] = molecular target: T1, LMP7; details: as previously described, Singh et al., 2011; cited from earlier work

Row | SMILES | in vivo anti-tumor activity (mean tumor volume) ([1]; vs bortezomib and carfilzomib, FIG. 2) | in vivo anti-tumor activity (mean tumor volume) ([1]; vs ixazomib 3 mg/kg per os twice per week, FIG. 3) | in vivo anti-tumor activity (mean tumor volume) [2] | in vivo anti-tumor activity (mean tumor volume) [3] | LMP7 activity in tumor lysate [4] | in vivo anti-tumor activity (mean tumor volume) [5] | Caspase-3/-7 activity (induction of apoptosis) in tumor lysate [6] | LMP7 selectivity [7] [fold]
1 | O=C(N[C@@H](Cc1coc2ccccc12)B(O)O)[C@@H]1C[C@H]2CC[C@@H]1O2 [Compound 9, [(1R)-2-(1-benzofuran-3-yl)-1-{[(1S,2R,4R)-7-oxabicyclo[2.2.1]heptan-2-yl]formamido}ethyl]boronic acid] | increased efficacy as compared to bortezomib and carfilzomib | comparable activity of compound 9 as compared to the pan-proteasome inhibitor ixazomib | increased anti-tumor activity of compound 9 as compared to bortezomib and carfilzomib, and comparable activity as compared to ixazomib | increased efficacy as compared to bortezomib, carfilzomib, and ixazomib | stronger and more prolonged than for the other pan-proteasome inhibitors tested; also recorded: significant reduction of enzymatic function of LMP7 | increased in vivo activity of compound 9 as compared to ixazomib and carfilzomib, and comparable activity when compared to bortezomib | longer than compared to the pan-proteasome inhibitors; also recorded: significant induction of apoptosis | –
2 | CC1=C(C(=O)N[C@H](C)C(=O)N[C@@H](Cc2c[nH]c3ccccc23)C(=O)N[C@@H](Cc2ccccc2)C(=O)[C@@]2(C)CO2)Cc2ccccc21 [PR-924] | – | – | – | – | – | – | – | 100
